Key:
Format in all cases: in vivo
[1] = tested on: Kochia (Kochia scoparia); test: Test A preemergence; conditions: for Plant response rating, Kochia: 125 g ai/ha, preemergence, 0 to 100 scale (0 no effect, 100 complete control)
Outline: (§1)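 Each rating is a visual injury score from 0 to 100 given about 10 d after treatment, judged against untreated controls kept alongside in the greenhouse. In loam soil–sand blend, seeds got a preemergence directed soil spray, while postemergence plants were 2 to 10 cm tall at spraying.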

[2] = tested on: barnyardgrass (Echinochloa crus-galli); test: Test A preemergence; conditions: for Plant response rating, Barnyardgrass: 125 g ai/ha, preemergence, 0 to 100 scale (0 no effect, 100 complete control)
Outline: as §1

[3] = tested on: giant foxtail (Setaria faberii); test: Test A preemergence; conditions: for Plant response rating, Foxtail, Giant: 125 g ai/ha, preemergence, 0 to 100 scale (0 no effect, 100 complete control)
Outline: as §1

[4] = tested on: pigweed (Amaranthus retroflexus); test: Test A preemergence; conditions: for Plant response rating, Pigweed: 125 g ai/ha, preemergence, 0 to 100 scale (0 no effect, 100 complete control)
[5] = tested on: ragweed (common ragweed, Ambrosia elatior); test: Test A preemergence; conditions: for Plant response rating, Ragweed: 125 g ai/ha, preemergence, 0 to 100 scale (0 no effect, 100 complete control)
Outline: as §1

[6] = tested on: ryegrass, Italian (Italian ryegrass, Lolium multiflorum); test: Test A preemergence; conditions: for Plant response rating, Ryegrass, Italian: 125 g ai/ha, preemergence, 0 to 100 scale (0 no effect, 100 complete control)
Outline: as §1

[7] = tested on: Galium (catchweed bedstraw, Galium aparine); test: Test A postemergence; conditions: postemergence; for Galium plant response rating: 125 g ai/ha, visual injury rating on 0 to 100 scale (0 no effect, 100 complete control), approx. 10 d; for Plant response rating, Galium: 500 g ai/ha, 0 to 100 scale, 0 no effect, 100 complete control
Outline: as §1

[8] = tested on: Kochia (Kochia scoparia); test: Test A postemergence; conditions: postemergence; for Kochia plant response rating: 125 g ai/ha, visual injury rating on 0 to 100 scale (0 no effect, 100 complete control), approx. 10 d; for Plant response rating, Kochia: 500 g ai/ha, 0 to 100 scale, 0 no effect, 100 complete control
Outline: as §1

[9] = tested on: barnyardgrass (Echinochloa crus-galli); test: Test A postemergence
Outline: as §1

[10] = tested on: blackgrass (Alopecurus myosuroides); test: Test A postemergence
Outline: as §1

[11] = tested on: corn (Zea mays); test: Test A postemergence; conditions: postemergence; for Corn plant response rating: 125 g ai/ha, visual injury rating on 0 to 100 scale (0 no effect, 100 complete control), approx. 10 d; for Plant response rating, Corn: 500 g ai/ha, 0 to 100 scale, 0 no effect, 100 complete control
Outline: as §1

[12] = tested on: giant foxtail (Setaria faberii); test: Test A postemergence; conditions: postemergence; for Foxtail, Giant plant response rating: 125 g ai/ha, visual injury rating on 0 to 100 scale (0 no effect, 100 complete control), approx. 10 d; for Plant response rating, Foxtail, Giant: 500 g ai/ha, 0 to 100 scale, 0 no effect, 100 complete control
Outline: as §1

[13] = tested on: pigweed (Amaranthus retroflexus); test: Test A postemergence; conditions: postemergence; for Pigweed plant response rating: 125 g ai/ha, visual injury rating on 0 to 100 scale (0 no effect, 100 complete control), approx. 10 d; for Plant response rating, Pigweed: 500 g ai/ha, 0 to 100 scale, 0 no effect, 100 complete control
Outline: as §1

[14] = tested on: ragweed (common ragweed, Ambrosia elatior); test: Test A postemergence; conditions: postemergence; for Ragweed plant response rating: 125 g ai/ha, visual injury rating on 0 to 100 scale (0 no effect, 100 complete control), approx. 10 d; for Plant response rating, Ragweed: 500 g ai/ha, 0 to 100 scale, 0 no effect, 100 complete control
Outline: as §1

[15] = tested on: ryegrass, Italian (Italian ryegrass, Lolium multiflorum); test: Test A postemergence; conditions: postemergence; for Ryegrass, Italian plant response rating: 125 g ai/ha, visual injury rating on 0 to 100 scale (0 no effect, 100 complete control), approx. 10 d; for Plant response rating, Ryegrass, Italian: 500 g ai/ha, 0 to 100 scale, 0 no effect, 100 complete control
Outline: as §1

[16] = tested on: wheat (Triticum aestivum); test: Test A postemergence; conditions: postemergence; for Wheat plant response rating: 125 g ai/ha, visual injury rating on 0 to 100 scale (0 no effect, 100 complete control), approx. 10 d; for Plant response rating, Wheat: 500 g ai/ha, 0 to 100 scale, 0 no effect, 100 complete control
Outline: as §1

[17] = tested on: barnyardgrass (Echinochloa crus-galli); test: Test B flooded paddy test; conditions: Flood, 500 g ai/ha; 0 to 100 scale where 0 is no effect and 100 is complete control; 13 to 15 d
Outline: (§2)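 Response scored visually against untreated controls, 0 = no effect and 100 = complete control, 13–15 d after treatment in the greenhouse. Compounds added to paddy water held 3 cm above soil surface. Treatment given at 2-leaf stage.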

[18] = tested on: ducksalad (Heteranthera limosa); test: Test B flooded paddy test; conditions: Flood, 500 g ai/ha; 0 to 100 scale where 0 is no effect and 100 is complete control; 13 to 15 d
Outline: as §2

[19] = tested on: rice (Oryra sativa); test: Test B flooded paddy test; conditions: Flood, 500 g ai/ha; 0 to 100 scale where 0 is no effect and 100 is complete control; 13 to 15 d
Outline: as §2

[20] = tested on: sedge, umbrella (small-flower umbrella sedge, Cyperus difformis); test: Test B flooded paddy test; conditions: Flood, 500 g ai/ha; 0 to 100 scale where 0 is no effect and 100 is complete control; 13 to 15 d
Outline: as §2

[21] = Preemergence, 500 g ai/ha, 0 is no effect, 100 is complete control
[22] = 500 g ai/ha, postemergence, 0 to 100 scale, 0 no effect, 100 complete control
[23] = Postemergence, 125 g ai/ha, visual injury, 0 to 100 scale (0 no effect, 100 complete control), approx. 10 d
[24] = Preemergence, 500 g ai/ha, visual injury approx. 10 d
[25] = 125 g ai/ha, postemergence, visual injury rating on 0 to 100 scale (0 no effect, 100 complete control), approx. 10 d

SMILES	Plant response rating, Kochia [1]	Plant response rating, Barnyardgrass [2]	Plant response rating, Foxtail, Giant [3]	Plant response rating, Pigweed [4]	Plant response rating, Ragweed [5]	Plant response rating, Ryegrass, Italian [6]	Galium plant response rating [7]	Plant response rating, Galium [7]	Kochia plant response rating [8]	Plant response rating, Kochia [8]	Plant response rating, Barnyardgrass [9, 22]	Plant response rating, Blackgrass [10, 22]	Corn plant response rating [11]	Plant response rating, Corn [11]	Foxtail, Giant plant response rating [12]	Plant response rating, Foxtail, Giant [12]	Pigweed plant response rating [13]	Plant response rating, Pigweed [13]	Ragweed plant response rating [14]	Plant response rating, Ragweed [14]	other results
O=C1NCC(c2cccc(OCC(F)F)c2)C1C(=O)Nc1ccccc1Cl (stereo not drawn) [Compound 390]	0	60	80	0	0	0	0	0	0	0	70	0	0	0	60	80	0	20	0	0	Kochia plant response rating (0 to 100 scale) [1, 21]: 0; Barnyardgrass plant response rating (0 to 100 scale) [2, 21]: 80; Foxtail, Giant plant response rating (0 to 100 scale) [3, 21]: 90; Pigweed plant response rating (0 to 100 scale) [4, 21]: 0; Ragweed plant response rating (0 to 100 scale) [5, 21]: 0; Ryegrass, Italian plant response rating (0 to 100 scale) [6, 21]: 0; Plant response rating, Barnyardgrass [9, 23]: 50; Plant response rating, Blackgrass [10, 23]: 0; Ryegrass, Italian plant response rating [15]: 0; Plant response rating, Ryegrass, Italian [15]: 10; Wheat plant response rating [16]: 0; Plant response rating, Wheat [16]: 0; Plant response rating, Barnyardgrass [17]: 50; Plant response rating, Ducksalad [18]: 65; Plant response rating, Rice [19]: 0; Plant response rating, Sedge, Umbrella [20]: 0
Cc1ccc(F)c(NC(=O)C2C(=O)NCC2c2cccc(OC(F)F)c2)c1 (stereo not drawn) [Compound 423]	0	0	0	0	0	0	0	0	0	0	0	0	0	0	0	0	0	0	0	0	Kochia plant response rating (0 to 100 scale, 0 is no effect, 100 is complete control) [1, 24]: 0; Barnyardgrass plant response rating (0 to 100 scale, 0 is no effect, 100 is complete control) [2, 24]: 0; Foxtail, Giant plant response rating (0 to 100 scale, 0 is no effect, 100 is complete control) [3, 24]: 0; Pigweed plant response rating (0 to 100 scale, 0 is no effect, 100 is complete control) [4, 24]: 0; Ragweed plant response rating (0 to 100 scale, 0 is no effect, 100 is complete control) [5, 24]: 0; Ryegrass, Italian plant response rating (0 to 100 scale, 0 is no effect, 100 is complete control) [6, 24]: 0; Barnyardgrass plant response rating [9, 25]: 0; Blackgrass plant response rating [10, 25]: 0; Ryegrass, Italian plant response rating [15]: 0; Plant response rating, Ryegrass, Italian [15]: 0; Wheat plant response rating [16]: 0; Plant response rating, Wheat [16]: 0; Plant response rating, Barnyardgrass [17]: 0; Plant response rating, Ducksalad [18]: 20; Plant response rating, Rice [19]: 0; Plant response rating, Sedge, Umbrella [20]: 0

Reference: US12077503B2, “Substituted cyclic amides and their use as herbicides” (FMC CORPORATION, priority 2015, dated 2024)
